Measurements reported in patent US9902776B2, “Anti-EGFR antibody and anti-c-Met/anti-EGFR bispecific antibodies comprising the same” (Samsung Electronics Co., Ltd., priority 2013, dated 2018).
Each block holds one molecule with its values, some of them ahead of it.

What was measured:
SNU5 cells = test: SNU5 xenograft tumor model in CB.17-SCID mice; type: in vivo; settings: intravenous, 4 weeks; antibodies 1 mg/kg once a week, Irinotecan 10 mg/kg twice a week; initial size 100 mm^3
Description: SNU5 cells (ATCC) were injected into dorsal subcutis of 5-6 week old CB.17-SCID mice (Shanghai SLAC Laboratory Animal Co. Ltd.) at the amount of 3×10^6 cell/mouse, to prepare tumor models. When the tumor volume reaches 100 mm^3, 1 mg/kg of L3-1Y-IgG2 and 1 mg/kg of anti-c-Met/anti-EGFR bispecific antibody ME22S were intravenously administered alone or in combination once a week for 4 weeks in total. A group where PBS is intravenously administered thereto was used as a negative control, and a group where 10 mg/kg of an anticancer drug, Irinotecan (Pfizer Inc.), was intravenously administered thereto twice a week for 4 weeks in total, was used as a positive control. The tumor size (length×breadth×height) was measured twice each week, and at the last week, the mice were autopsied.

c-Met = c-Met (Homo sapiens, UniProt P08581); test: Specificity of expressed scFv of huAbF46; type: binding; set-up: endogenous in cells; host or cells: SNU638 (A8, A11); MKN45 (A11); settings: after expression
Excerpt: For use in constructing an scFv of the huAbF46 antibody from the heavy and light chain variable regions of the huAbF46 antibody, a gene was designed to have the structure of “VH-linker-VL” for each of the heavy and the light chain variable region, with the linker including the amino acid sequence “[…]” (SEQ ID NO: 54). A polynucleotide sequence (SEQ ID NO: 55) encoding the designed scFv of huAbF46 was synthesized in Bioneer and an expression vector for the polynucleotide had the nucleotide sequence of SEQ ID NO: 56.

Chain of c-Met (P08581 25-1390): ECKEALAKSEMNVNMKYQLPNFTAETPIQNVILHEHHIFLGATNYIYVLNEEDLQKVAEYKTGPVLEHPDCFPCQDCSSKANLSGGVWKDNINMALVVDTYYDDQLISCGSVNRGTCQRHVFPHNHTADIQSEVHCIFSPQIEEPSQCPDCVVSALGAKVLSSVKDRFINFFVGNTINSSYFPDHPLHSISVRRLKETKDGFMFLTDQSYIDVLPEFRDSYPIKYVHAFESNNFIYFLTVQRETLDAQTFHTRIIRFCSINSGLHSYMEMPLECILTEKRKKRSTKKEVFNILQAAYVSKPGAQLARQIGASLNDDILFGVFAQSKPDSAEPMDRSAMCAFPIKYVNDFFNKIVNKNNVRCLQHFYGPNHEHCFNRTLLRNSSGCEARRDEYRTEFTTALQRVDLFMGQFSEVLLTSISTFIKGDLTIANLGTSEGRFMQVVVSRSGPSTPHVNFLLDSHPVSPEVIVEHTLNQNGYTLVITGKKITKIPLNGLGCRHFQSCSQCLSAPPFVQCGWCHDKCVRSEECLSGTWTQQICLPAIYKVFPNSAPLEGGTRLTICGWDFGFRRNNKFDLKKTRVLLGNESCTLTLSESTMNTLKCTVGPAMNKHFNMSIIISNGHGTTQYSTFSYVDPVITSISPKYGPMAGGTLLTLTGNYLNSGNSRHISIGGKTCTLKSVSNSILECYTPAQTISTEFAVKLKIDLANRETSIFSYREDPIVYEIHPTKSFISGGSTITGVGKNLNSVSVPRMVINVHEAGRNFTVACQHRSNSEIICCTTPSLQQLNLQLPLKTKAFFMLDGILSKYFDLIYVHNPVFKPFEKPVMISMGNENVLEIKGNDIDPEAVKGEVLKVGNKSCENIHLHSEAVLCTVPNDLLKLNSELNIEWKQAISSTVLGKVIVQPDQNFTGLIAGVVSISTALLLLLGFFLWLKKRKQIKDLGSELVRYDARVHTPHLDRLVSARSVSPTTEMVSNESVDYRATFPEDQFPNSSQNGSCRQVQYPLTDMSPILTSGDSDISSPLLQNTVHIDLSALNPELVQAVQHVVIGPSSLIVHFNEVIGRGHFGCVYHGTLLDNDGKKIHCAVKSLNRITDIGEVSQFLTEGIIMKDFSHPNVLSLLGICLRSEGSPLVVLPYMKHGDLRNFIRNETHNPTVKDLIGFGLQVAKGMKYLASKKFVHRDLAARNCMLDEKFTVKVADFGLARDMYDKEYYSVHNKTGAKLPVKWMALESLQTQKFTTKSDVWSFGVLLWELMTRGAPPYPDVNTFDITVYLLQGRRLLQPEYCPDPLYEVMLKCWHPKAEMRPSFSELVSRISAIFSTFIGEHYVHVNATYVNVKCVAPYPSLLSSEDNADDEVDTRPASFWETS

Molecule: CCc1c2c(nc3ccc(OC(=O)N4CCC(N5CCCCC5)CC4)cc13)-c1cc3c(c(=O)n1C2)COC(=O)[C@]3(O)CC [Irinotecan, reference compound]
final tumor size (SNU5 cells): about 72 mm^3

specificity to c-Met (c-Met): exhibit specificity to c-Met
B1: scFv of huAbF46: scFv of huAbF46, structure VH-linker-VL with linker SEQ ID NO: 54 (protein)
scFv: EVQLVESGGGLVQPGGSLRLSCAASGFTFTDYYMSWVRQAPGKGLEWLGFIRNKANGYTTEYSASVKGRFTISRDNSKNTLYLQMNSLRAEDTAVYYCARDNWFAYWGQGTLVTVSSGLGGLGGGGSGGGGSGGSSGVGSDIQMTQSPSSLSASVGDRVTITCKSSQSLLASGNQNNYLAWHQQKPGKAPKMLIIWASTRVSGVPSRFSGSGSGTDFTLTISSLQPEDFATYYCQQSYSAPLTFGQGTKVEIKR
